Structures can show the parent of a compound that is named as a salt. Where a SMILES comes first, the peptide text is derived from it.
What was measured:
Assay type in all cases: cell-based
COL1A1 = experiment: In vitro efficacy in semi-activated LX2 cells, qPCR: COL1A1; details: Homo sapiens, 48 hours, Q-PCR, read-out: COL1A1 mRNA inhibition rate; for inhibition at 50 µM: LX-2, 50 µM; for inhibition at 25 µM: LX-2, test concentration 25 μM
COL3A1 = experiment: In vitro efficacy in semi-activated LX2 cells, qPCR: COL3A1; details: Homo sapiens, 48 hours, Q-PCR, read-out: COL3A1 mRNA inhibition rate; for inhibition at 50 µM: LX-2, 50 µM; for inhibition at 25 µM: LX-2, test concentration 25 μM
[1] = test system: collagen I and collagen III; experiment: Semi-activated LX2 cells, qPCR: collagen I and collagen III at the mRNA level; details: 48 hours, Q-PCR, Table 2
In short: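 LX-2 human hepatic stellate cells, adhered 12 h, were treated with 50 µM test compound for 48 h. Total RNA was extracted, and COL1A1, COL1A2 and COL3A1 mRNA were measured by SYBR Green qPCR.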

FN = experiment: Semi-activated LX2 cells, Western blot: FN protein; details: 50-400 μM, 48 hours, FIG. 3, vs 50 μM aspartic acid
α-SMA [2] = experiment: In vitro efficacy in semi-activated LX2 cells, qPCR: α-SMA; details: test concentration 25 μM, 48 hours, Q-PCR, read-out: α-SMA mRNA inhibition rate
In short: (§1)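 Compound at 50 µM is added to adherent LX2 stellate cells and left for 48 hours before total RNA is isolated. Transcript levels are then measured by SYBR Green real-time PCR on cDNA and expressed by relative quantification.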

IL-1β = experiment: In vitro efficacy in semi-activated LX2 cells, qPCR: IL-1β; details: Homo sapiens, 48 hours, Q-PCR, read-out: IL-1β mRNA inhibition rate; for inhibition at 25 µM: LX-2, test concentration 25 μM
COL1A2 [3] = experiment: In vitro efficacy in semi-activated LX2 cells, qPCR: COL1A2; details: Homo sapiens, 48 hours, Q-PCR, read-out: COL1A2 mRNA inhibition rate; for inhibition at 25 µM: LX-2, test concentration 25 μM
TNF-α [4] = experiment: In vitro efficacy in semi-activated LX2 cells, qPCR: TNF-α; details: Homo sapiens, LX-2, 48 hours, Q-PCR, read-out: TNF-α mRNA inhibition rate
Description: (§2) Test compounds were added to the LX-2 cells respectively, and total RNA in the cells was extracted 48 hours later. This experiment was performed strictly in accordance with the instructions of the Total RNA Kit. The steps were as follows (note: this experiment was performed on ice throughout the entire process, and special RNase-free tips were used throughout the entire process): • 1) The 12-well cell culture plate was taken out from the incubator, the cell culture medium was discarded, the cells were washed twice with 1 mL of 1×PBS, and a negative pressure suction device was used to fully remove PBS; • 2) 350 μL of TRK Lysis Buffer mixture/well was prepared as needed (mixture preparation method: 1 mL of TRKLysis Buffer+20 μL of β-mercaptoethanol), vortexed and mixed well. 350 μL was added to each well of the 12-well cell culture plate, and allowed to stand at room temperature for 5 minutes to fully lyse the cells; • 3) 70% ethanol/well was prepared as needed, vortexed and mixed well. 350 μL was added to each well of the 12-well cell culture plate, mixed well by shaking, and transferred to the spin column (spin column+collection tube were assembled); • 4) Centrifugation was performed at 4° C., 12000 g for 60 sec. The waste liquid was discarded after centrifugation, while the spin column was kept; • 5) 500 μL of RNA Wash Buffer I was added, centrifuged at 4° C., 12000 g for 60 sec, the waste liquid was discarded after centrifugation, and the collection column was kept; • 6) 500 μL of RNA Wash Buffer II (confirmed that ethanol had been added) was added, centrifuged at 4° C., 12000 g for 60 sec, the waste liquid was discarded after centrifugation, and the collection column was kept; • 7) step 6) was repeated once again, centrifugation was performed at 4° C., 12000 g for 90 sec, the waste liquid was discarded after centrifugation, and the collection column was kept; • 8) Centrifugation was performed at 4° C., 12000 g for 120 sec to ensure that the spin column was fully dried; • 9) The dried spin column was inserted into a new 1.5 mL EP tube, and 30 μL of DEPC water was added to the membrane in the center of the spin column. It should be careful not to touch the EP tube cover in this step. It was allowed to stand at room temperature for 5 minutes to ensure that the RNA was fully dissolved in DEPC water. Centrifugation was performed at 4° C., 12000 g for 60 sec, and the EP tube was kept; • 10) NanoDrop ultra-micro-volume spectrophotometer was used to detect RNA concentration;
(§3) 5.2 Reverse transcription of RNA into cDNA: According to the instructions of PrimeScript™ RT reagent Kit (Perfect Real Time), the specific experimental steps were as follows:
(§4) 5.3 Q-PCR detection of target gene expression: According to the instructions of Power SYBR® Green PCR Master Mix, the specific operations were as follows:
(§5) After the reaction was completed, the amplification curve and dissolution curve of Q-PCR were confirmed, and the relative quantification method ([…]) was used to perform data analysis on the experimental results.
(§6) LX2 cells were passaged and plated normally. After adherent growth for 12 hours, 50 µM of the test compound was added. After 48 hours, the cells were collected, total RNA was extracted, and Q-PCR was used to detect the changes in the mRNA expression levels of liver fibrosis-related genes (ACTA2 encoding α-SMA, COL1A1 and COLIA2 encoding collagen I, COL3A1 encoding collagen III, SMAD3 encoding Smad3) and inflammation-related genes (IL1β encoding IL-1β, TNFα encoding TNFα) (for specific methods, see 5. Q-PCR detection of target gene expression as described above). α-SMA was a marker of hepatic stellate cell activation, and collagen I and collagen III were the main components of extracellular matrix deposition.

[5] = test system: liver fibrosis-related genes; experiment: Semi-activated LX2 cells, qPCR: liver fibrosis-related genes overall; details: 48 hours, Q-PCR, Table 2
Description: as §2, §4, §6

α-SMA [6] = experiment: Semi-activated LX2 cells, Western blot: α-SMA protein; details: 50-400 μM, 48 hours, FIG. 2, vs 50 μM aspartic acid
Smad3 = experiment: In vitro efficacy in semi-activated LX2 cells, qPCR: Smad3; details: Homo sapiens, 48 hours, Q-PCR, read-out: Smad3 mRNA inhibition rate
In short: as §1

TNF-α [7] = experiment: In vitro efficacy in semi-activated LX2 cells, qPCR: TNF-α; details: Homo sapiens, 48 hours, Q-PCR, read-out: TNF-α mRNA inhibition rate
NS3TP1 = experiment: Regulation of NS3TP1 in semi-activated LX2 cells, qPCR; details: LX-2 cells, 48 hours, Q-PCR, vs control group
Description: as §2, §3, §4, §5
LX2 cells were passaged and plated normally. […] After 48 hours, the cells were collected, total RNA was extracted, and the expression of NS3TP1 gene was detected using Q-PCR method.

collagen I = experiment: Activated LX2 cells (TGFβ1), Western blot: Collagen I; details: LX2 cells stimulated with TGFβ1 (5 ng/mL), 24 hours, FIG. 4
α-SMA [8] = experiment: Activated LX2 cells (TGFβ1), Western blot: α-SMA; details: LX2 cells stimulated with TGFβ1 (5 ng/mL), 24 hours, FIG. 4
COL1A2 [9] = experiment: In vitro efficacy in semi-activated LX2 cells, qPCR: COL1A2; details: Homo sapiens, LX-2, 48 hours, Q-PCR, read-out: COL1A2 mRNA inhibition rate
Description: as §2, §3, §4, §5, §6

[10] = LX-2, test concentration 12.5 μM

For `CC(C)OC(=O)[C@@H](N)CC(=O)O` [Compound 50, 1-isopropyl L-aspartic acid ester hydrochloride], the inhibition at 50 µM (COL1A1) was 25 to 50%, the inhibition at 50 µM (COL3A1) was 1 to 10% and the “inhibition of the expression of collagen I and collagen III at the mRNA level” value (shortened to “inhibition of the expression … at the mRNA level”) [1] was “could inhibit”. The “inhibitory effect on FN protein expression as compared to ASP” value (FN) was “stronger inhibitory effects”.
`N[C@@H](CC(=O)OCOC(=O)C[C@H](N)C(=O)O)C(=O)O` [Compound 55, (2S,2'S)-4,4′-(methylenebis (oxy))bis (2-amino-4-oxobutyric acid) hydrochloride] was tested, and the inhibition at 25 µM (COL1A1) was 1 to 10%, the inhibition at 25 µM (COL3A1) was 1 to 10% and the inhibition at 25 µM (α-SMA [2]) was 1 to 10%. The inhibition at 25 µM (IL-1β) was 1 to 10% and the inhibition at 25 µM (COL1A2 [3]) was 1 to 10%.
In the case of `COC(=O)[C@H](Cc1ccccc1)NC(=O)[C@@H](N)CC(=O)O` [Compound 48] (HELM PEPTIDE1{D.F.[CO[*:1]]}$$$$V2.0), the inhibition at 50 µM (COL1A1) is reported as 25 to 50%, the inhibition at 50 µM (COL3A1) is reported as 10 to 25% and the inhibition at 50 µM (TNF-α [4]) is reported as 1 to 10%. The “inhibition of the expression … at the mRNA level” value [1] was “could inhibit”, the “inhibition of the mRNA expression levels of liver fibrosis-related genes (overall)” value [5] was “stronger effects” and the “inhibitory effect on α-SMA protein as compared to ASP” value (α-SMA [6]) was “stronger inhibitory effects”.
Work on `C[S+]([O-])C[C@H](N)C(=O)O` (stereo partly drawn) [Compound 45] yielded an inhibition at 25 µM (COL1A1) of 1 to 10%, an inhibition at 25 µM (COL3A1) of 1 to 10% and an inhibition at 25 µM (α-SMA [2]) of 1 to 10%. The inhibition at 25 µM (Smad3; LX-2, test concentration 25 μM) was 1 to 10%, the inhibition at 25 µM (IL-1β) was 1 to 10% and the inhibition at 25 µM (COL1A2 [3]) was 1 to 10%. The inhibition at 25 µM (TNF-α [7]; LX-2, test concentration 25 μM) was 1 to 10%.
`N[C@@H](CS(=O)O)C(=O)O` [Compound 46] was tested, and the inhibition at 25 µM (COL1A2 [3]) was 1 to 10%.
For `COC(=O)C[C@H](N)C(=O)OCCOC(=O)C[C@H](N)C(=O)OC` [Compound 78a, 4-(2-(S)-2-amino-4-methoxy-4-oxobutyryl)ethyl)1-methyl L-aspartic acid ester hydrochloride], the “Up-regulation of NS3TP1” value (NS3TP1; test concentration 12.5 μM) was “C (C represented that the up-regulation was 1~20%)”, the “expression of Collagen I in the cells” value (collagen I) was “significantly decreased” and the “expression of α-SMA in the cells” value (α-SMA [8]) was “significantly decreased”.
`CN[C@@H](CC(=O)O)C(=O)O` [Compound 3] was tested, and the inhibition at 12.5 µM (COL1A1; [10]) was 25 to 50%, the inhibition at 12.5 µM (COL3A1; [10]) was 1 to 10% and the inhibition at 12.5 µM (Smad3; [10]) was 1 to 10%. For the same compound, the inhibition at 12.5 µM (IL-1β; [10]) was 1 to 10%, the inhibition at 12.5 µM (COL1A2 [3]; [10]) was 1 to 10% and the inhibition at 12.5 µM (TNF-α [7]; [10]) was 1 to 10%.
In the case of `CC(C)OC(=O)OCOC(=O)C[C@H](N)C(=O)O` [Compound 52, 4-(((isopropoxycarbonyl)oxy)methyl) L-aspartic acid ester hydrochloride], the inhibition at 50 µM (COL1A1) is reported as 25 to 50%, the inhibition at 50 µM (COL1A2 [9]) is reported as 1 to 10% and the inhibition at 50 µM (COL3A1) is reported as 25 to 50%. The “inhibition of the expression … at the mRNA level” value [1] was “could inhibit”, the “inhibition of the mRNA expression levels of liver fibrosis-related genes (overall)” value [5] was “stronger effects” and the “inhibitory effect on α-SMA protein as compared to ASP” value (α-SMA [6]) was “stronger inhibitory effects”. For the same compound, the “inhibitory effect on FN protein expression as compared to ASP” value (FN) was “stronger inhibitory effects”.
`COC(=O)C[C@H](N)C(=O)OCCOC(=O)[C@@H](N)CC(=O)OC` [Compound 77a, O′1,O1-(ethan-1,2-diyl)4-dimethyl (2S,2'S)-bis (2-aminosuccinate) hydrochloride] was tested, and the “Up-regulation of NS3TP1” value (NS3TP1; 200 µM compound) was “C (C represented that the up-regulation was 1~20%)”, the “expression of Collagen I in the cells” value (collagen I) was “significantly decreased” and the “expression of α-SMA in the cells” value (α-SMA [8]) was “significantly decreased”.
